This note sets out measurements from patent publication US12656356B2, “Pregabalin immunoassays” (ARK Diagnostics, Inc., priority 2015, dated 2026).

“And” between values parts separate entries of the source, which are not always exact repeats. Equal entries are not always repeated.

The first assay deals with anti-pregabalin antibody. As to the kind of experiment: Specificity of the homogeneous enzyme immunoassay (cross-reactivity). The assay is classed as binding, rabbit. The conditions noted are these: compound at 200 μg/mL added to pooled pregabalin-free human urine; Siemens Viva-E System. From the text:
Antibodies obtained using any of the disclosed techniques are screened or purified not only for their ability to react with pregabalin, but for a low cross-reactivity with potential interfering substances. “Cross-reactivity” may be determined in a quantitative immunoassay by establishing a standard curve using known dilutions of the target analyte, pregabalin. […] The cross-reactivity is the apparent concentration divided by the actual concentration multiplied by 100. […] Furthermore, the cross-reactivity can be determined in the same type of immunoassay in which the antibody will ultimately be used.
An analyzer (instrument) useful to set up the assay is Siemens Viva-E. The Siemens Viva-E® System is an automated biochemistry analyzer used by medical and toxicology laboratories to process biological fluid specimens, such as urine, cerebrospinal fluid, and most commonly, blood. […] The enzyme conjugate activity decreases upon binding to the antibody. The enzyme conjugate, which is not bound to the antibody, catalyzes the oxidation of glucose-6-phosphate. The oxidation of glucose-6-phosphate is coupled with the reduction of NAD^+ to NADH, which can be measured at 340 nm. The change in the absorbance at 340 nm can be measured spectrophotometrically. The pregabalin concentration in a urine specimen can be measured in terms of G6PDH activity. The increase in the rate at 340 nm is due to the formation of NADH and is proportional to the enzyme conjugate activity. An assay curve can be generated using pregabalin spiked into pooled human pregabalin-free urine. The assay rate increases with increasing the concentration of free drug in the sample.
The specificity of the immunoassay was evaluated by adding a compound to pooled pregabalin-free human urine samples fortified with EDTA, and NaN3 preservative and testing the samples and determining the percent cross-reactivity. Separate stock solutions of each compound were prepared in methanol. […] The percentage cross-reactivity was calculated for each compound tested.
For the compound `NCC1(CC(=O)O)CCCCC1` [Gabapentin], the “% Crossreactivity” value was 0.019%. Turning to `C[C@H](N)C(=O)O` [L-Alanine], the “% Crossreactivity” value turned out to be 0.004%. The same measure, in the same setting: the same measure for `N=C(N)NCCC[C@H](N)C(=O)O` [L-Arginine]: 0.006%; for `NC(=O)C[C@H](N)C(=O)O` [L-Asparagine]: 0.004%. In the case of `N[C@@H](CC(=O)O)C(=O)O` [L-Aspartic Acid], the “% Crossreactivity” value turned out to be 0.004%. For `N[C@@H](CS)C(=O)O` [L-Cysteine], the “% Crossreactivity” value stood at 0.005%. Same read-out and setting: the same measure for `N[C@@H](CCC(=O)O)C(=O)O` [L-Glutamic Acid]: 0.006%. On the same count and under the same terms, the same measure for `NC(=O)CC[C@H](N)C(=O)O` [L-Glutamine]: 0.004%.

With `NCC(=O)O` [L-Glycine], the “% Crossreactivity” value came to 0.005%. Still for that read-out and setting: the same measure for `N[C@@H](Cc1c[nH]cn1)C(=O)O` [L-Histidine]: 0.007%.

With `CC[C@H](C)[C@H](N)C(=O)O` [L-Isoleucine], the “% Crossreactivity” value turned out to be 0.008%. Same read-out and setting: the same measure for `CC(C)C[C@H](N)C(=O)O` [L-Leucine, L-leucine]: 0.038%. On the same count and under the same terms, the same measure for `NCCCC[C@H](N)C(=O)O` [L-Lysine]: 0.001%; for `CSCC[C@H](N)C(=O)O` [L-Methionine]: 0.031%. As for `N[C@@H](Cc1ccccc1)C(=O)O` [L-Phenylalanine], the “% Crossreactivity” value was determined as 0.006%. As to `O=C(O)[C@@H]1CCCN1` [L-Proline], the “% Crossreactivity” value is 0.004%. As for `N[C@@H](CO)C(=O)O` [L-Serine], the “% Crossreactivity” value worked out at 0.005%.

Regarding `C[C@@H](O)[C@H](N)C(=O)O` [L-Threonine], the “% Crossreactivity” value was 0.005%. As for `N[C@@H](Cc1c[nH]c2ccccc12)C(=O)O` [L-Tryptophan], the “% Crossreactivity” value is recorded as 0.006%. Still for that read-out and setting: the same measure for `N[C@@H](Cc1ccc(O)cc1)C(=O)O` [L-Tyrosine]: 0.004%; for `CC(C)[C@H](N)C(=O)O` [L-Valine]: 0.006%.

Another assay relates to antibody #10930.
Assay: not given
The assay is classed as binding, rabbit.
Conditions: not given
Regarding `CC(C)C[C@H](CN)CC(=O)O` [Pregabalin, (S)-3-(aminomethyl)-5-methylhexanoic acid], the “Reaction Rate (mA/min) Average of Duplicates” value is 432.5 mA/min and 344.0 mA/min and 381.5 mA/min and 407.0 mA/min.
